Results reported in patent publication US9808448B2, “Pharmaceutical compounds and use of same in cancer and tauopathies” (THE REGENTS OF THE UNIVERSITY OF MICHIGAN, priority 2013, dated 2017).

System: MDA-MB-231
Assay: Cancer activity screen (MTT cell survival), MDA-MB-231
Type: cell-based
Details: Homo sapiens, second table

Row | Structure (SMILES) | IC50 [µM]
1 | CCn1c(=O)/c(=C2\Sc3cc(F)ccc3N2C)s/c1=C\c1scc[n+]1Cc1ccc(C(=O)OC)o1 | 3.05 ± 0.42
2 | CCn1c(=O)/c(=C2\Sc3cc(Cl)ccc3N2C)s/c1=C\c1nccs1 | 2.3 ± 0.6
3 | CCn1c(=O)/c(=C2\Sc3cc(Cl)ccc3N2C)s/c1=C\c1scc[n+]1Cc1cc(-c2ccccc2)no1 | 0.17 ± 0.01
4 | CCn1c(=O)/c(=C2\Sc3ccc(Cl)cc3N2C)s/c1=C\c1scc[n+]1C | 3.1 ± 0.4
5 | CCn1c(=O)/c(=C2\Sc3c(ccc(F)c3F)N2C)s/c1=C\c1cccc[n+]1Cc1ccsc1 | 2.09 ± 0.31
6 | CCn1c(=O)/c(=C2\Sc3cc(F)ccc3N2C)s/c1=C\c1scc[n+]1Cc1ccsc1C(=O)OC | 0.14 ± 0.02
7 | CCn1c(=O)/c(=C2\Sc3ccc(Cl)cc3N2C)s/c1=C\c1scc[n+]1Cc1ccccc1C(F)(F)F | 0.25 ± 0.03
8 | CCn1c(=O)/c(=C2\Sc3cc(Cl)ccc3N2C)s/c1=C\c1scc[n+]1Cc1ccsc1Br | 0.2 ± 0.02
9 | CN1/C(=c2\s/c(=C\c3ccncc3)n(CC(=O)O)c2=O)Sc2cc(F)ccc21 | > 20
10 | COC(=O)Cn1c(=O)/c(=C2\Sc3cc(F)ccc3N2C)s/c1=C\c1scc[n+]1Cc1ccccc1 | 2.9 ± 0.3
11 | COC(=O)Cn1c(=O)/c(=C2\Sc3cccc(F)c3N2C)s/c1=C\c1ccncc1 | > 20
12 | CCn1c(=O)/c(=C2\Sc3c(ccc(F)c3F)N2C)s/c1=C\c1cccc[n+]1Cc1ccccc1C(F)(F)F | 0.38 ± 0.07
13 | CCn1c(=O)/c(=C2\Sc3c(ccc(F)c3F)N2C)s/c1=C\c1cccc[n+]1Cc1ccsc1Br | 0.92 ± 0.17
14 | CCn1c(=O)/c(=C2\Sc3c(C)cccc3N2C)s/c1=C\c1scc[n+]1Cc1ccccc1 | 0.25 ± 0.03
15 | CCn1c(=O)/c(=C2\Sc3cc(C#N)ccc3N2C)s/c1=C\c1ccccn1 | 22.3 ± 4.61
16 | CN1/C(=c2\s/c(=C\c3scc[n+]3Cc3ccccc3)n(C3CC3)c2=O)Sc2cc(F)ccc21 | 0.76 ± 0.08
17 | CCn1c(=O)/c(=C2\Sc3cc(C(F)(F)F)ccc3N2C)s/c1=C\c1scc[n+]1CC | 4.2 ± 0.6
18 | CCn1c(=O)/c(=C2\Sc3c(ccc(F)c3F)N2C)s/c1=C\c1nccs1 | 11.7 ± 2.3
19 | COC(=O)Cn1c(=O)/c(=C2\Sc3cc(C(F)(F)F)ccc3N2C)s/c1=C\c1cccc[n+]1C | > 20
20 | CCn1c(=O)/c(=C2\Sc3cc(Cl)ccc3N2C)s/c1=C\c1scc[n+]1Cc1csc(C)n1 | 0.74 ± 0.07
21 | COC(=O)CCn1c(=O)/c(=C2\Sc3cc(Cl)ccc3N2C)s/c1=C\c1ccccn1 | > 20
22 | CCn1c(=O)/c(=C2\Sc3c(ccc(F)c3F)N2C)s/c1=C\c1scc[n+]1Cc1ccsc1 | 0.81 ± 0.06

Row | Structure (SMILES) | IC50 [µM]
23 | CCn1c(=O)/c(=C2\Sc3ccc(Cl)cc3N2C)s/c1=C\c1scc[n+]1Cc1cc(-c2ccccc2)no1 | 0.5 ± 0.04
24 | CCn1c(=O)/c(=C2\Sc3c(ccc(F)c3F)N2C)s/c1=C\c1scc[n+]1Cc1ccc(C(F)(F)F)o1 | 0.51 ± 0.05
25 | C=CCn1c(=O)/c(=C2\Sc3cccc(F)c3N2C)s/c1=C\c1ccncc1 | 0.38 ± 0.03
26 | CCn1c(=O)/c(=C2\Sc3c(ccc(F)c3F)N2C)s/c1=C\c1cccc[n+]1Cc1ccsc1C(=O)OC | 1.95 ± 0.27
27 | COC(=O)Cn1c(=O)/c(=C2\Sc3cc(C(F)(F)F)ccc3N2C)s/c1=C\c1scc[n+]1Cc1ccccc1 | 2.1 ± 0.4
28 | CCOC(=O)c1ccc(C[n+]2ccsc2/C=c2\s/c(=C3/Sc4cc(Cl)ccc4N3C)c(=O)n2CC)o1 | 0.72 ± 0.08
29 | CCn1c(=O)/c(=C2\Sc3c(ccc(F)c3F)N2C)s/c1=C\c1cccc[n+]1Cc1cc(-c2ccccc2)no1 | 1.33 ± 0.2
30 | COC(=O)[C@@H](C)n1c(=O)/c(=C2\Sc3cc(F)ccc3N2C)s/c1=C\c1ccccn1 | > 20
31 | COC(=O)Cn1c(=O)/c(=C2\Sc3cc(Cl)ccc3N2C)s/c1=C\c1scc[n+]1Cc1ccccc1 | > 20
32 | CCn1c(=O)/c(=C2\Sc3cc(Cl)ccc3N2C)s/c1=C\c1scc[n+]1Cc1ccc(F)cc1 | 1.07 ± 0.19
33 | CCn1c(=O)/c(=C2\Sc3cc(C(F)(F)F)ccc3N2C)s/c1=C\c1scc[n+]1C | 8.5 ± 1
34 | CCn1c(=O)/c(=C2\Sc3c(ccc(F)c3F)N2C)s/c1=C\c1scc[n+]1C | 5.6 ± 0.6
35 | CCn1c(=O)/c(=C2\Sc3ccc(Cl)cc3N2C)s/c1=C\c1nccs1 | 1.5 ± 0.3
36 | CCn1c(=O)/c(=C2\Sc3cccc(C)c3N2C)s/c1=C\c1scc[n+]1Cc1ccccc1 | 0.21 ± 0.04
37 | CCn1c(=O)/c(=C2\Sc3cc(Cl)ccc3N2C)s/c1=C\c1scc[n+]1Cc1cccnc1Br | 1.6 ± 0.2
38 | COC(=O)Cn1c(=O)/c(=C2\Sc3cc(F)ccc3N2C)s/c1=C\c1ccccn1 | > 20
39 | CCn1c(=O)/c(=C2\Sc3cc(F)ccc3N2C)s/c1=C\c1scc[n+]1Cc1ccccc1C(F)(F)F | 0.21 ± 0.03
40 | CCn1c(=O)/c(=C2\Sc3ccc(OC(F)(F)F)cc3N2C)s/c1=C\c1scc[n+]1Cc1ccccc1 | 1.25 ± 0.13
41 | CCn1c(=O)/c(=C2\Sc3cc(Cl)ccc3N2C)s/c1=C\c1scc[n+]1Cc1cccc(F)c1 | 1.01 ± 0.16
42 | CCn1c(=O)/c(=C2\Sc3ccc(Cl)cc3N2C)s/c1=C\c1scc[n+]1Cc1ccsc1 | 0.44 ± 0.05
43 | COC(=O)Cn1c(=O)/c(=C2\Sc3cc(F)ccc3N2C)s/c1=C\c1ccncc1 | 2 ± 0.2
44 | CCn1c(=O)/c(=C2\Sc3cc(C(F)(F)F)ccc3N2C)s/c1=C\c1cccc[n+]1CC | 2.7 ± 0.6

Row | Structure (SMILES) | IC50 [µM]
45 | CCn1c(=O)/c(=C2\Sc3cc(F)ccc3N2C)s/c1=C\c1scc[n+]1Cc1ccccc1 | 0.15 ± 0.01
46 | CCn1c(=O)/c(=C2\Sc3cc(C(F)(F)F)ccc3N2C)s/c1=C\c1ccncc1 | > 20
47 | CCN1C(=O)/C(=C2\Sc3ccc(F)cc3N2C)S/C1=N\c1ccccc1 | 9.18 ± 1.04
48 | COC(=O)[C@@H](C)n1c(=O)/c(=C2\Sc3cc(F)ccc3N2C)s/c1=C\c1scc[n+]1Cc1ccccc1 | 1.2 ± 0.14
49 | CCn1c(=O)/c(=C2\Sc3ccc(Cl)cc3N2C)s/c1=C\c1scc[n+]1Cc1ccsc1C(=O)OC | 0.16 ± 0.02
50 | CCn1c(=O)/c(=C2\Sc3ccc(Cl)cc3N2C)s/c1=C\c1scc[n+]1Cc1ccc(C(F)(F)F)o1 | 0.3 ± 0.02
51 | CCn1c(=O)/c(=C2\Sc3cc(C)ccc3N2C)s/c1=C\c1scc[n+]1Cc1ccccc1 | 0.041 ± 0.006
52 | COC(=O)Cn1c(=O)/c(=C2\Sc3ccc(F)cc3N2C)s/c1=C\c1ccccn1 | > 20
53 | CCn1c(=O)/c(=C2\Sc3cc(Cl)ccc3N2C)s/c1=C\c1scc[n+]1Cc1ccc(C(F)(F)F)o1 | 0.12 ± 0.02
54 | CCn1c(=O)/c(=C2\Sc3cc(Cl)ccc3N2C)s/c1=C\c1scc[n+]1C(C)C(=O)c1ccccc1 (stereo not shown) | 0.34 ± 0.03
55 | CCn1c(=O)/c(=C2\Sc3ccc(S(C)(=O)=O)cc3N2C)s/c1=C\c1scc[n+]1Cc1ccccc1 | > 20
56 | CCn1c(=O)/c(=C2\Sc3cc(C(F)(F)F)ccc3N2C)s/c1=C\c1scc[n+]1Cc1ccccc1 | 0.36 ± 0.03
57 | CCn1c(=O)/c(=C2\Sc3cc(Cl)ccc3N2C)s/c1=C\c1scc[n+]1Cc1ccsc1 | 0.11 ± 0.01
58 | COC(=O)Cn1c(=O)/c(=C2\Sc3c(F)cccc3N2C)s/c1=C\c1ccncc1 | > 20
59 | CCn1c(=O)/c(=C2\Sc3cc(Cl)ccc3N2C)s/c1=C\c1scc[n+]1Cc1cc(C)on1 | 0.22 ± 0.02
60 | CCn1c(=O)/c(=C2\Sc3c(ccc(F)c3F)N2C)s/c1=C\c1scc[n+]1Cc1cc(C)on1 | 1.33 ± 0.11
61 | COC(=O)CCn1c(=O)/c(=C2\Sc3cc(Cl)ccc3N2C)s/c1=C\c1scc[n+]1Cc1ccccc1 | 0.24 ± 0.03
62 | CCn1c(=O)/c(=C2\Sc3ccc(Cl)cc3N2C)s/c1=C\c1scc[n+]1Cc1cc(C)on1 | 1.05 ± 0.09
63 | CCn1c(=O)/c(=C2\Sc3cc(Cl)ccc3N2C)s/c1=C\c1scc[n+]1Cc1ccc(C(F)(F)F)cc1 | 1.2 ± 0.15
64 | CCn1c(=O)/c(=C2\Sc3cc(C#N)ccc3N2C)s/c1=C\c1cccc[n+]1Cc1ccccc1 | 1.4 ± 0.1
